Measurements: US11891365B2, “3-alkyl-4-amido-bicyclic [4,5,0] hydroxamic acids as HDAC inhibitors” (Valo Health, Inc., priority 2015, dated 2024)

Target: T1, Full length human recombinant HDAC6 protein (Homo sapiens, UniProt Q9UBN7)
T1 sequence (Q9UBN7 1-1215): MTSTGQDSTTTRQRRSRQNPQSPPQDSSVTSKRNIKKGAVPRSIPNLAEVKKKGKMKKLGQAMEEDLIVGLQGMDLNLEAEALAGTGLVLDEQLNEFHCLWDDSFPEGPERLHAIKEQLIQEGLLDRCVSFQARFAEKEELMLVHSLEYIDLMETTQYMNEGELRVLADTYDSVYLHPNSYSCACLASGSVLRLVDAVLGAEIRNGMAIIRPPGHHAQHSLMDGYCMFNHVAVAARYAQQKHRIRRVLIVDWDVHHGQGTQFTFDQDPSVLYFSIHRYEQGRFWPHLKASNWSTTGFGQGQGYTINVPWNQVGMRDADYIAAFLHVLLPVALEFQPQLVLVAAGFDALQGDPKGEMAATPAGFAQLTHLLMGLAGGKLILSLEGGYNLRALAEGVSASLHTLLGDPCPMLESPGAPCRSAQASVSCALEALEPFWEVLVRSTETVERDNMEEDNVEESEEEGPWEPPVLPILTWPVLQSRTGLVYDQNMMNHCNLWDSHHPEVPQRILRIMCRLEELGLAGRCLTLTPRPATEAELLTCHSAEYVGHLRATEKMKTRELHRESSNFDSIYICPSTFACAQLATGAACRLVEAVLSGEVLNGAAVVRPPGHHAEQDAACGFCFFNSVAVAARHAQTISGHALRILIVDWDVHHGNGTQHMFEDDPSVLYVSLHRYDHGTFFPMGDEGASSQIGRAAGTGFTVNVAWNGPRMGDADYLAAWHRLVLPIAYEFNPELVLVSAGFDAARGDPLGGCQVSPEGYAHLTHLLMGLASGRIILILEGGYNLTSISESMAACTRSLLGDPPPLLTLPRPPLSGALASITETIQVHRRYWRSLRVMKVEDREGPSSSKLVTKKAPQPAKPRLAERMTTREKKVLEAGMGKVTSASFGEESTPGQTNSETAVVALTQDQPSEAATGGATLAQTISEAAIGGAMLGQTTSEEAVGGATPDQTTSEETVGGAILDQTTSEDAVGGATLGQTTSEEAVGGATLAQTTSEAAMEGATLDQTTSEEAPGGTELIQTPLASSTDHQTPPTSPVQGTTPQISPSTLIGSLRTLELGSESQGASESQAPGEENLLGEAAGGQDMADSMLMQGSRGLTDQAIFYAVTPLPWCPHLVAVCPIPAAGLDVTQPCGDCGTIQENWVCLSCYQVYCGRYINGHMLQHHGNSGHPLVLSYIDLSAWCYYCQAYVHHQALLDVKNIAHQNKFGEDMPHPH
Test: In vitro histone deacetylase assay: enzymatic HDAC6 electrophoretic mobility shift assay
Type: biochemical
Details: 1 nM enzyme, 2 μM peptide substrate RHKK(Ac)-NH2, 25° C., 12 concentrations; read-out: Inhibitory Concentration (IC50) Values against HDAC6, Activity Range

SMILES | IC50 [µM]
C[C@H]1COc2cc(C(=O)NO)ccc2CN1C(=O)[C@H]1CCCCO1 [(S)-N-hydroxy-3-methyl-4-((R)-tetrahydro-2H-pyran-2-carbonyl)-2,3,4,5-tetrahydrobenzo[f][1,4]oxazepine-8-carboxamide] | ≤ 0.1
C[C@H]1COc2cc(C(=O)NO)ccc2CN1C(=O)[C@@H]1CCCOC1 [(S)-N-hydroxy-3-methyl-4-((R)-tetrahydro-2H-pyran-3-carbonyl)-2,3,4,5-tetrahydrobenzo[f][1,4]oxazepine-8-carboxamide] | ≤ 0.1
C[C@H]1COc2cc(C(=O)NO)ccc2CN1C(=O)[C@@H]1CCOC1 [(S)-N-hydroxy-3-methyl-4-((R)-tetrahydrofuran-3-carbonyl)-2,3,4,5-tetrahydrobenzo[f][1,4]oxazepine-8-carboxamide] | ≤ 0.1
C[C@H]1COc2cc(C(=O)NO)ccc2CN1C(=O)C1COC1 [(S)-N-hydroxy-3-methyl-4-(oxetane-3-carbonyl)-2,3,4,5-tetrahydrobenzo[f][1,4]oxazepine-8-carboxamide] | ≤ 0.1
C[C@H]1COc2cc(C(=O)NO)ccc2CN1C(=O)C1CCOCC1 [(S)-N-hydroxy-3-methyl-4-(tetrahydro-2H-pyran-4-carbonyl)-2,3,4,5-tetrahydrobenzo[f][1,4]oxazepine-8-carboxamide] | ≤ 0.1
CCC(=O)N1Cc2ccc(C(=O)NO)cc2OC[C@@H]1C [(S)-N-hydroxy-3-methyl-4-propionyl-2,3,4,5-tetrahydrobenzo[f][1,4]oxazepine-8-carboxamide] | ≤ 0.1
COCC1(C(=O)N2Cc3ccc(C(=O)NO)cc3OC[C@@H]2C)CC1 [(S)-N-hydroxy-4-(1-(methoxymethyl)cyclopropane-1-carbonyl)-3-methyl-2,3,4,5-tetrahydrobenzo[f][1,4]oxazepine-8-carboxamide] | ≤ 0.1

Continued, values first:

IC50 [µM] | SMILES
≤ 0.1 | C[C@H]1COc2cc(C(=O)NO)ccc2CN1C(=O)[C@]1(C)CCCCO1 [(S)-N-hydroxy-3-methyl-4-((S)-2-methyltetrahydro-2H-pyran-2-carbonyl)-2,3,4,5-tetrahydrobenzo[f][1,4]oxazepine-8-carboxamide]
≤ 0.1 | C[C@H]1COc2cc(C(=O)NO)ccc2CN1C(=O)[C@@]1(C)CCOC1 [(S)-N-hydroxy-3-methyl-4-((S)-3-methyltetrahydrofuran-3-carbonyl)-2,3,4,5-tetrahydrobenzo[f][1,4]oxazepine-8-carboxamide]
≤ 0.1 | C[C@H]1COc2cc(C(=O)NO)ccc2CN1C(=O)[C@@H]1CCCCO1 [(S)-N-hydroxy-3-methyl-4-((S)-tetrahydro-2H-pyran-2-carbonyl)-2,3,4,5-tetrahydrobenzo[f][1,4]oxazepine-8-carboxamide]
≤ 0.1 | C[C@H]1COc2cc(C(=O)NO)ccc2CN1C(=O)[C@H]1CCCOC1 [(S)-N-hydroxy-3-methyl-4-((S)-tetrahydro-2H-pyran-3-carbonyl)-2,3,4,5-tetrahydrobenzo[f][1,4]oxazepine-8-carboxamide]
≤ 0.1 | C[C@H]1COc2cc(C(=O)NO)ccc2CN1C(=O)[C@H]1CCOC1 [(S)-N-hydroxy-3-methyl-4-((S)-tetrahydrofuran-3-carbonyl)-2,3,4,5-tetrahydrobenzo[f][1,4]oxazepine-8-carboxamide]
≤ 0.1 | COCC1(C(=O)N2Cc3ccc(C(=O)NO)cc3OC[C@@H]2C)CCC1 [(S)-N-hydroxy-4-(1-(methoxymethyl)cyclobutane-1-carbonyl)-3-methyl-2,3,4,5-tetrahydrobenzo[f][1,4]oxazepine-8-carboxamide]
≤ 0.1 | COC1(C(=O)N2Cc3ccc(C(=O)NO)cc3OC[C@@H]2C)CCC1 [(S)-N-hydroxy-4-(1-methoxycyclobutane-1-carbonyl)-3-methyl-2,3,4,5-tetrahydrobenzo[f][1,4]oxazepine-8-carboxamide]
≤ 0.1 | COC1(C(=O)N2Cc3ccc(C(=O)NO)cc3OC[C@@H]2C)CCCCC1 [(S)-N-hydroxy-4-(1-methoxycyclohexane-1-carbonyl)-3-methyl-2,3,4,5-tetrahydrobenzo[f][1,4]oxazepine-8-carboxamide]
